Measurements taken from patent US20260337189A1, “Cryptolepine Salt Derivative, Preparation Method, and Use Thereof” (ZHEJIANG XINNONG CHEMICAL CO., LTD., priority 2023, published 2026).

Experiments:
rice sheath blight = assay: Test of resistance to rice sheath blight (bactericidal activity test); type: in vivo; settings: for Resistance to rice sheath blight: 400 mg/L, rice seedlings, sprayed 24 h before inoculation, 6 days after inoculation, visual inspection; for bactericidal activity against rice sheath blight: live pot test, Table 5, 400 mg/L
Procedure: Bactericidal activity test, the determination procedure is as follows:
Test of resistance to rice sheath blight: Select uniformly growing rice seedlings and spray them on the leaves at the set concentration, set a water spraying group as blank control, every treatment was repeated twice. After 24 h, the rice seedlings were inoculated with rice sheath blight strains and placed at room temperature (25±4° C.) for normal management after inoculation. The prevention and control effect was investigated by visual inspection 6 days after inoculation.

[1] = tested on: tobacco Mosaic virus (TMV); assay: Anti-tobacco Mosaic virus (TMV) activity, overall comparison of Test Example 1; type: in vivo; settings: 500 μg/mL; Table 4
Procedure: Determination of anti-tobacco Mosaic virus (TMV) activity by the following procedure:
After weighing, cryptolepine salt derivative, ningnanmycin and the original drug of ribavirin were dissolved in DMF to obtain 1×10^5 μg/mL mother solution, and then diluted to the required concentration with 1%. Tween 80 aqueous solution.
Select the 3-5 leaf stage of tobacco Xanthi nc with uniform growth, spray the whole plant, repeat each treatment 3 times, and set 1%. Tween80 aqueous solution as control. 24 h later, the leaf surface was coated with emery (500 mesh), the disease venom was dipped with a brush, and the whole leaf surface was gently rubbed twice along the direction of the branch pulse by using the brush, the leaf was supported by palm of hand, the virus concentration was 10 μg/mL, and the leaf was washed by water after inoculation. After 3 days, the number of disease spots was recorded and the prevention and control effect was calculated.
Select the 3-5 leaf stage of tobacco Xanthi nc with uniform growth, use a brush to vaccinate the virus in the whole leaf, the virus concentration is 10 μg/mL, and the leaf was washed with running water after inoculation. After the leaves were dried, the whole plant was sprayed with test sample, repeated 3 times every treatment, and 1%. Tween 80 aqueous solution was set as control. After 3 days, the number of disease spots was recorded and the prevention and control effect was calculated.
Select the 3-5 leaf stage of tobacco Xanthi nc with uniform growth, mix the test sample agent with the same volume of virus juice to passivate for 30 min, friction inoculation, virus concentration 20 μg/mL, the leaf was washed with running water after inoculation, repeat 3 times, set 1%. Tween 80 aqueous solution as control. 3 days later, the number of disease spots was calculated.
Relative inhibition rate (%)=[(number of dead spots of control group-number of dead spots of test sample group)/number of dead spots of control group]×100%.
Anti-tobacco Mosaic virus passivation activity test of all compounds was at a treatment dose of 500 μg/mL. The positive control was the commercial anti-plant virus agent viriazole.

SMILES | Resistance to rice sheath blight (rice sheath blight) [%] | bactericidal activity against rice sheath blight (rice sheath blight) | TMV activity compared with ribavirin [1] | anti-TMV activity compared with commercial Ningnanmycin [1]
Cc1ccc(S(=O)(=O)n2c3ccccc3c3c2cc2ccccc2[n+]3C)cc1.[Cl-] [Example 1] | 95 ± 5 | more than 95% | – | –
Cc1ccc(S(=O)(=O)n2c3ccc(C)cc3c3c2cc2ccccc2[n+]3C)cc1.[Cl-] [Example 2] | 40 ± 0 | – | – | –
COc1ccc2c(c1)c1c(cc3ccccc3[n+]1C)n2S(=O)(=O)c1ccc(C)cc1.[Cl-] [Example 3] | 35 ± 5 | – | – | –
Cc1ccc(S(=O)(=O)n2c3ccc(Cl)cc3c3c2cc2ccccc2[n+]3C)cc1.[Cl-] [Example 5] | 55 ± 5 | more than 50% | better TMV activity than the ribavirin | comparable to that of commercial Ningnanmycin
Cc1ccc(S(=O)(=O)n2c3ccc(Br)cc3c3c2cc2ccccc2[n+]3C)cc1.[Cl-] [Example 6] | 40 ± 0 | – | better TMV activity than the ribavirin | comparable to that of commercial Ningnanmycin
Cc1ccc(S(=O)(=O)n2c3ccc(C#N)cc3c3c2cc2ccccc2[n+]3C)cc1.[Cl-] [Example 8] | 30 ± 0 | – | – | –
Cc1ccc(S(=O)(=O)n2c3ccccc3c3c2cc2cc(C)ccc2[n+]3C)cc1.[Cl-] [Example 9] | 70 ± 0 | more than 50% | – | –
COc1ccc2c(c1)cc1c(c3ccccc3n1S(=O)(=O)c1ccc(C)cc1)[n+]2C.[Cl-] [Example 10] | 30 ± 0 | – | – | –
Cc1ccc(S(=O)(=O)n2c3ccccc3c3c2cc2cc(F)ccc2[n+]3C)cc1.[Cl-] [Example 11] | 40 ± 0 | – | – | –
Cc1ccc(S(=O)(=O)n2c3ccccc3c3c2cc2cc(Cl)ccc2[n+]3C)cc1.[Cl-] [Example 12] | 40 ± 0 | – | – | –
Cc1ccc(S(=O)(=O)n2c3ccccc3c3c2cc2cc(Br)ccc2[n+]3C)cc1.[Cl-] [Example 13] | 35 ± 5 | – | better TMV activity than the ribavirin | comparable to that of commercial Ningnanmycin
Cc1ccc(S(=O)(=O)n2c3ccccc3c3c2cc2cc(C(F)(F)F)ccc2[n+]3C)cc1.[Cl-] [Example 14] | 60 ± 0 | more than 50% | – | –
COC(=O)c1ccc2c(c1)cc1c(c3ccccc3n1S(=O)(=O)c1ccc(C)cc1)[n+]2C.[Cl-] [Example 15] | 40 ± 0 | – | – | –
Cc1ccc(S(=O)(=O)n2c3ccccc3c3c2cc2ccc(C)cc2[n+]3C)cc1 [Example 16] | 95 ± 5 | more than 95% | – | –
Cc1ccc(S(=O)(=O)n2c3ccccc3c3c2cc2ccc(Cl)cc2[n+]3C)cc1 [Example 17] | 40 ± 0 | – | – | –
Cc1ccc(S(=O)(=O)n2c3ccccc3c3c2cc2ccccc2[n+]3CC2CC2)cc1 [Example 18] | 45 ± 5 | more than 50% | better TMV activity than the ribavirin | –
Cc1ccc(S(=O)(=O)n2c3ccccc3c3c2cc2ccccc2[n+]3CC2CCCCC2)cc1 [Example 19] | 20 ± 0 | – | better TMV activity than the ribavirin | –
Cc1ccc(S(=O)(=O)n2c3ccccc3c3c2cc2ccccc2[n+]3CC(C)(C)C)cc1 [Example 20] | 55 ± 5 | more than 50% | better TMV activity than the ribavirin | comparable to that of commercial Ningnanmycin
Cc1ccc(S(=O)(=O)n2c3ccccc3c3c2cc2ccccc2[n+]3Cc2ccccc2)cc1 [Example 21] | 40 ± 0 | – | better TMV activity than the ribavirin | –
C[n+]1c2ccccc2cc2c1c1ccccc1n2S(=O)(=O)c1ccccc1 [Example 22] | 45 ± 5 | more than 50% | – | –

SMILES | Resistance to rice sheath blight (rice sheath blight) [%] | bactericidal activity against rice sheath blight (rice sheath blight) | TMV activity compared with ribavirin [1] | anti-TMV activity compared with commercial Ningnanmycin [1]
CCCNc1c2ccccc2[n+](C)c2c1[nH]c1ccccc12 [Example 23] | 30 ± 0 | – | – | –
CC(C)CCNc1c2ccccc2[n+](C)c2c1[nH]c1ccccc12 [Example 26] | 35 ± 5 | – | better TMV activity than the ribavirin | –
CCCCC(CC)CNc1c2ccccc2[n+](C)c2c1[nH]c1ccccc12 (centres unmarked) [Example 27] | 30 ± 0 | – | better TMV activity than the ribavirin | comparable to that of commercial Ningnanmycin
C[n+]1c2ccccc2c(NCC2CC2)c2[nH]c3ccccc3c21 [Example 28] | 60 ± 0 | more than 50% | – | –
C[n+]1c2ccccc2c(NCC2CCCCC2)c2[nH]c3ccccc3c21 [Example 30] | 35 ± 5 | – | – | –
C[n+]1c2ccccc2c(NCCCC2CCCCC2)c2[nH]c3ccccc3c21.[I-] [Example 31] | 25 ± 5 | – | – | –
C[n+]1c2ccccc2c(NCCN)c2[nH]c3ccccc3c21.[I-] [Example 32] | 30 ± 0 | – | – | –
C[n+]1c2ccccc2c(NCCCCN)c2[nH]c3ccccc3c21.[I-] [Example 34] | 20 ± 0 | – | better TMV activity than the ribavirin | comparable to that of commercial Ningnanmycin
CC(N)CNc1c2ccccc2[n+](C)c2c1[nH]c1ccccc12.[I-] (centres unmarked) [Example 35] | 25 ± 5 | – | better TMV activity than the ribavirin | –
C[n+]1c2ccccc2c(NCC(C)(C)N)c2[nH]c3ccccc3c21.[I-] [Example 36] | 35 ± 5 | – | – | –
CCNCCNc1c2ccccc2[n+](C)c2c1[nH]c1ccccc12.[I-] [Example 37] | 40 ± 0 | – | – | –
CNCCCNc1c2ccccc2[n+](C)c2c1[nH]c1ccccc12.[I-] [Example 38] | 30 ± 0 | – | – | –
CN(C)CC(C)(C)CNc1c2ccccc2[n+](C)c2c1[nH]c1ccccc12.[I-] [Example 39] | 25 ± 5 | – | – | –
C[n+]1c2ccccc2c(NC2CCNC2)c2[nH]c3ccccc3c21.[I-] (centres unmarked) [Example 40] | 20 ± 0 | – | better TMV activity than the ribavirin | –
C[n+]1c2ccccc2c(NCC2CCCNC2)c2[nH]c3ccccc3c21.[I-] (centres unmarked) [Example 43] | 30 ± 0 | – | – | –
CN1CCC(Nc2c3ccccc3[n+](C)c3c2[nH]c2ccccc23)CC1.[I-] [Example 44] | 55 ± 5 | more than 50% | – | –
CN1CCC(CNc2c3ccccc3[n+](C)c3c2[nH]c2ccccc23)CC1.[I-] [Example 45] | 30 ± 0 | – | – | –
C[n+]1c2ccccc2cc2[nH]c3ccc(Br)cc3c21 [Reference Example 1, 5-methyl-7-bromo 5H-indolo[3,2-b]quinoline, reference compound] | 0 | – | – | –
C[n+]1c2ccccc2c(N2CCN(CCN)CC2)c2[nH]c3ccc(Cl)cc3c21.[I-] [Reference Example 2, 11-(4′-(2-aminoethyl)-piperazinyl) substituted cryptolepine iodide salt, reference compound] | 0 | – | – | –
Cc1nc(C(F)(F)F)c(C(=O)Nc2c(Br)cc(OC(F)(F)F)cc2Br)s1 [Thifluzamide, thifluzamide, reference compound] | 100 | – | – | –
